The nature of test [1]: (§1) Antimicrobial activity against Bacillus sp. BS-01 expressing multiple resistance gene cfr and […] resistance gene fexA obtained from swine feces. In kind it is functional. Particulars: Bacillus sp. BS-01, Feces.
Test [2] deals with Staphylococcus aureus. The test is described as follows: Antimicrobial activity against Staphylococcus aureus RN4220 harboring pBS-01multiple resistance gene cfr and phenolic resistance gene fexA obtained from swine feces.
In test [3] the test system is Staphylococcus aureus. The test is described as follows: Antimicrobial activity against Staphylococcus aureus RN4220. It is filed as functional.
The subject of test [4] is Bacillus sp. BS-01. Described as §1. In kind it is functional.

Values after ≈ are worked out from the molar mass of the structure shown. Where only a bound is given, the exact number is not on record here.

As to `O=C(N[C@H](CO)[C@H](O)c1ccc([N+](=O)[O-])cc1)C(Cl)Cl` [CHLORAMPHENICOL], the MIC (in general, the lowest concentration found to suppress growth) amounted to 32 mg/L (≈ 99 µM) in test [1], 4 mg/L (≈ 12.4 µM) in test [2] and 16 mg/L (≈ 49.5 µM) in test [3].

Turning to `O=C(O)c1cn(C2CC2)c2cc(N3CCNCC3)c(F)cc2c1=O` [CIPROFLOXACIN], the MIC is 8 mg/L (≈ 24.1 µM) in test [1], 0.5 mg/L (≈ 1.51 µM) in test [2] and 0.5 mg/L (≈ 1.51 µM) in test [3].

Turning to `CCC[C@@H]1C[C@@H](C(=O)N[C@@H]([C@H]2O[C@H](SC)[C@H](O)[C@@H](O)[C@H]2O)[C@H](C)Cl)N(C)C1` [CLINDAMYCIN], the MIC is above 32 mg/L in test [1], below 0.625 mg/L in test [2] and above 32 mg/L in test [3].

Consider `CC[C@H]1OC(=O)[C@H](C)[C@@H](O[C@H]2C[C@@](C)(OC)[C@@H](O)[C@H](C)O2)[C@H](C)[C@@H](O[C@@H]2O[C@H](C)C[C@H](N(C)C)[C@H]2O)[C@](C)(O)C[C@@H](C)C(=O)[C@H](C)[C@@H](O)[C@]1(C)O` [ERYTHROMYCIN], for which the MIC in test [1] is above 64 mg/L; in test [2], 0.25 mg/L (≈ 0.341 µM); in test [3] it was above 64 mg/L.

With `CS(=O)(=O)c1ccc([C@@H](O)[C@@H](CF)NC(=O)C(Cl)Cl)cc1` [FLORFENICOL], the results for the MIC in test [1], in test [2] and in test [3] were 32 mg/L (≈ 89.3 µM), 4 mg/L (≈ 11.2 µM) and 16 mg/L (≈ 44.7 µM), respectively.

Consider `CC(=O)NC[C@H]1CN(c2ccc(N3CCOCC3)c(F)c2)C(=O)O1` [LINEZOLID], for which the minimal inhibitory concentration (MIC) came out at 2 mg/L (≈ 5.93 µM) in test [1] and 1 mg/L (≈ 2.96 µM) in test [2].

Consider `CN(C)[C@@H]1C(O)=C(C(N)=O)C(=O)[C@@]2(O)C(O)=C3C(=O)c4c(O)cccc4[C@@](C)(O)[C@H]3C[C@@H]12` [TETRACYCLINE], for which the results for the minimum inhibitory concentration (MIC) in test [1], in test [2] and in test [3] were 32 mg/L (≈ 72 µM), 1 mg/L (≈ 2.25 µM) and 1 mg/L (≈ 2.25 µM), respectively.

As for `C=C[C@]1(C)C[C@@H](OC(=O)CSCCN(CC)CC)[C@]2(C)[C@H](C)CC[C@]3(CCC(=O)[C@H]32)[C@@H](C)[C@@H]1O` [TIAMULIN], the figures for the MIC in test [1], in test [2] and in test [3] were 256 mg/L (≈ 518 µM), below 0.5 mg/L and 32 mg/L (≈ 64.8 µM), respectively.

Take `CN[C@H](CC(C)C)C(=O)N[C@H]1C(=O)N[C@@H](CC(N)=O)C(=O)N[C@H]2C(=O)N[C@H]3C(=O)N[C@H](C(=O)N[C@H](C(=O)O)c4cc(O)cc(O)c4-c4cc3ccc4O)[C@H](O)c3ccc(c(Cl)c3)Oc3cc2cc(c3O[C@@H]2O[C@H](CO)[C@@H](O)[C@H](O)[C@H]2O[C@H]2C[C@](C)(N)[C@H](O)[C@H](C)O2)Oc2ccc(cc2Cl)[C@H]1O` [VANCOMYCIN]: it took 0.5 mg/L (≈ 0.345 µM) to inhibit growth in test [1] (MIC).

GENTAMICIN: the MIC in test [4] worked out at 8 mg/L; in test [3], 0.25 mg/L.

Values taken from ChEMBL document CHEMBL1649326, “First report of the multidrug resistance gene cfr and the phenicol resistance gene fexA in a Bacillus strain from swine feces” (2010).
